Laboratory results reported in patent publication US10005731B2, “Modulators of the retinoid-related orphan receptor gamma (ROR-gamma) for use in the treatment of autoimmune and inflammatory diseases” (Glaxo Group Limited, priority 2012, dated 2018).
Read-outs that look alike come from different tables or passages of the source.

What was measured:
RORγ = molecular target: T1, RORγ (Homo sapiens, UniProt P51449); test: Jurkat cell luciferase assay (human IL17 promoter reporter, RORγt overexpression); assay type: cell-based; conditions: mean pIC50; detection limit of the assay 5
T1 construct: expressed in transfected cells
T1 sequence (P51449 1-497 isoform P51449-2): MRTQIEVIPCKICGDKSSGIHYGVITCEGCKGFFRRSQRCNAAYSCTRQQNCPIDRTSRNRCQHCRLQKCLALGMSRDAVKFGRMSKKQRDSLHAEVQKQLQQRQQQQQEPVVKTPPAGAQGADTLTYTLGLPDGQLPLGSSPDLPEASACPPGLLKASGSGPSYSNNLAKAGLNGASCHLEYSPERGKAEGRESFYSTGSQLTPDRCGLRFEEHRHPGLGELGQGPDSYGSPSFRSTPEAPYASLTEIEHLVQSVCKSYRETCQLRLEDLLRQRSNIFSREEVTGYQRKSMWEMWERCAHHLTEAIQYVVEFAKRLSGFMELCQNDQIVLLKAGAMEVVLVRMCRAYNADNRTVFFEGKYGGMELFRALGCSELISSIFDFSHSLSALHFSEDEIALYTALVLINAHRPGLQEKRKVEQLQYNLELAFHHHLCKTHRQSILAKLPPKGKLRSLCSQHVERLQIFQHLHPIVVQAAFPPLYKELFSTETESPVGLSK
Text: RORγ is known to bind to a CNS (conserved non-coding sequences) enhancer element in the IL17 promoter. In this assay, RORγ activity is indirectly assessed using a luciferase reporter construct which contains the human IL17 promoter having the RORγ-specific CNS enhancer element. Inhibition of RORγ activity by a compound will result in a decrease in luciferase activity of Jurkat cells transfected with the reporter construct.
. For the 1.1 Kb fragment, PCR was used to amplify human IL17 proximal promoter region from genomic DNA of 293T cells using primers as follows: forward primer, 5′-[…]-3′ (SEQ ID NO. 4) (Xhol site is underlined) and reverse primer, 5′-[…]-3′ SEQ ID NO. 5) (HindIII site is underlined). The 1.1 kb DNA bands were excised, purified, and inserted into pMD19-T Simple Vector (Takara). After DNA sequencing confirmation, the 1.1 kb DNA was digested with XhoI and HindIII and inserted into XhoI/HindIII sites of pGL4.31[luc2P/GAL4UAS/Hygro] (Promega) to generate the pIL17-lkb-luc reporter construct. For the 1.9 Kb fragment, PCR was used to amplify human IL17 promoter region from genomic DNA using primers as follows: forward primer, 5′-[…]-3′ (SEQ ID NO. 6) (KpnI site is underlined) and reverse primer, 5′-[…]-3′ (SEQ ID NO. 7)(XhoI site is underlined). The resulting 1.9 kb DNA bands were excised, gel purified, and cloned into a pMD19-T Simple Vector (Takara). […] The 1.9 kb DNA fragment was released by double digestion with KpnI and XhoI and inserted into pIL17-lkb-luc to generate the luciferase reporter plasmid “pIL17-3kb-CNS-luc.” To overexpress RORγt, the full-length cDNA of human RORγt identical to the published sequence NM13 001001523 was cloned into pcDNA3.1 at the KpnI-NotI cloning sites to generate the RORγt overexpression plasmid “CDNA3.1DhRORγ49-8”. […]
Compounds were dissolved in DMSO at three concentrations, 10 mM, 400 uM and 16 uM, and were dispensed into 384-wells assay plate at 40 nl, 12.5 nl, 5 nl respectively. The volume was adjusted with pure DMSO to a give a final uniform volume of 40 nl Jurkat cells described above were counted and centrifuged. […]

[1] = In vitro percutaneous study (Franz diffusion cells, aqueous cream); assay type: in vitro ADME, human; conditions: 1.0% w/w in aqueous cream pH=6, 5 mg/cm^2, human skin from three donors
Text: The in vitro percutaneous study is aimed to predict the level of percutaneous penetration obtained for a compound in a topical formulation for psoriasis. This assay coupled with the intrinsic potency of the compound are used to predict the likelihood of success of a compound to engage the target. The higher the ratio of the percutaneous penetration to the intrinsic potency, the higher the ratio of local skin concentration to the intrinsic potency and therefore the higher the chance of a compound to engage the target in a topical formulation.
The compounds were manufactured in a modified aqueous cream at pH=6.
The study was conducted with dermatomed abdominal human skin sourced from three skin donors using 2 cm2 Franz diffusion cells. The receiving fluid consisted of Bovine serum albumin (4% w/v) in 0.1% w/v sodium azide in Phospate Buffer Saline and was heated at 37° C. in order to obtain 32° C. at the skin surface. The cream formulation was applied on the donor side at a 10 mg dose, i.e. 5 mg/cm^2. The samples taken at the following time points: t=0, 3, 6, 9 and 24 h. The receiver samples were then assayed using a method based upon protein precipitation with acetonitrile followed by LC/MS/MS analysis. The percutaneous flux (in ng/cm^2/hr) was determined using the individual API (in a multiple composition) that had permeated into the receiver compartment over 24 hrs per cm^2.

Mouse CD4+ cells = test: Th17 cell differentiation assay (IL-17 ELISA); assay type: cell-based; conditions: table with percutaneous study
Description: Mouse CD4+cells were purified using the CD4+ T Cell Isolation II Kit according to manufacturer's instructions (Miltenyi Biotec). 96 well plates were pre-coated with anti-mCD3 antibody. Un-coated wells were used as controls. CD4+ Cells were resuspended in RPMI 1640 complete medium and were added to the 96-well plates. Cytokine cocktail and the compound were then added to the wells. Antibodies and cytokines (all from R&D Systems) used in the assay were selected from the following: anti-mCD3; anti-mCD28; anti-mIFNγ; anti-mIL4; mIL-6; mIL-23; mIL-1β; hTGF-β1. The culture was incubated at 37° C. for 3 days and supernatants were collected for ELISA. The IL-17 ELISAs were performed according to manufacturer's instructions (R&D Systems). The results were analyzed using Prism software with non-linear regression to determine pIC50.

| SMILES | IC50 (RORγ) [nM] | Flux over 24 hrs [1] [ng/cm^2/hr] | IC50 (Mouse CD4+ cells; read-out: Th17 cell differentiation assay IC50) [ng/mL] | IC50 (Mouse CD4+ cells; read-out: Th17 cell differentiation assay pIC50 (converted)) [nM] |
| --- | --- | --- | --- | --- |
| Cc1cnc(C(=O)Nc2cc(F)cc(CN3CCN(C(=O)C4CCCC4)[C@@H](C)C3)c2C)cn1 [Example 36, (S)-N-(3-((4-(cyclopentanecarbonyl)-3-methylpiperazin-1-yl)methyl)-5-fluoro-2-methylphenyl)-5-methylpyrazine-2-carboxamide] | > 10000 |  |  |  |
| Cc1ccc(C(=O)Nc2cc(F)cc(CN3CCN(C(=O)C4CC(C)(C)C4)[C@@H](C)C3)c2C)cn1 [Example 164, (S)-N-(3-((4-(3,3-dimethylcyclobutanecarbonyl)-3-methylpiperazin-1-yl)methyl)-5-fluoro-2-methylphenyl)-6-methylnicotinamide] |  | 3.12 | 9.3 | 20 |
